Results reported in US5475018A, “1,5-diphenyl pyrazole compounds for treatment of inflammation” (G. D. Searle & Co., priority 1993, dated 1995).

What was measured:
[1] = Rat Carrageenan-induced Analgesia Test; assay type: in vivo, Male Sprague-Dawley rats; conditions: oral, inhibition of hyperalgesic foot withdrawal, 3 h after carrageenan
Experimental: (§1) The carrageenan foot edema test was performed with materials, reagents and procedures essentially as described by Winter et al (Proc. Soc. Exp. Biol. Med., 111, 544 (1962)). Male Sprague-Dawley rats were selected in each group so that the average body weight was as close as possible. Rats were fasted with free access to water for over sixteen hours prior to the test. The rats were dosed orally (1 mL) with compounds suspended in vehicle containing 0.5% methylcellulose and 0.025% surfactant, or with vehicle alone. One hour later a subplantar injection of 0.1 mL of 1% solution of carrageenan/sterile 0.9% saline was administered and the volume of the injected foot was measured with a displacement plethysmometer connected to a pressure transducer with a digital indicator. Three hours after the injection of the carrageenan, the volume of the foot was again measured. The average foot swelling in a group of drug-treated animals was compared with that of a group of placebo-treated animals and the percentage inhibition of edema was determined (Otterness and Bliven, Laboratory Models for Testing NSAIDs, in Non-steroidal Anti-Inflammatory Drugs, (J. Lombardino, ed. 1985)).
The analgesia test using rat carrageenan was performed with materials, reagents and procedures essentially as described by Hargreaves et al (Pain, 32, 77 (1988)). […] The time until the rat withdraws its foot was then measured. […]

[2] = Rat Carrageenan Foot Pad Edema Test; assay type: in vivo, Male Sprague-Dawley rats; conditions: oral, dosed 1 h before carrageenan, foot volume 3 h after carrageenan, vs placebo
Experimental: as §1

With `CS(=O)(=O)c1ccc(-n2nc(C(F)(F)F)cc2-c2ccc(F)cc2)cc1` [Example 1, 5-(4-Fluorophenyl)-1-[4-(methylsulfonyl)phenyl]-3-(trifluoromethyl)pyrazole] the “ANALGESIA % Inhibition @ 20 mg/kg body weight” value [1] was 37% and the “RAT PAW EDEMA % Inhibition @ 10 mg/kg body weight” value [2] was 38%.
